Data: patent US20220363681A1, “OXO SIX-MEMBERED CYCLOPYRIMIDINE COMPOUND, PREPARATION METHOD AND MEDICAL USE THEREOF” (GenFleet Therapeutics (Shanghai) Inc., priority 2019, published 2022)

Columns and labels:
[1] = tested on: A549 cells (Kras G12S mutation); test: Cell proliferation inhibition experiment, 3D cell model, CellTiter-Glo (A549); format: cell-based, human; details: A549, 2% FBS F-12K, 384-well sphere plate, cultured 5 days with compound
Procedure: (§1) NCI-H358 was a human non-small cell lung cancer cell line with Kras G12C mutation, cultured in 10% FBS RPMI-1640 medium; A549 was a human lung adenocarcinoma cell line with Kras G12S mutation, cultured in 10% FBS F-12K medium. The cells in the logarithmic growth phase was taken, digested with trypsin EDTA, collected and counted, and H358 was adjusted to 1.8E4 cells/ml using 2% FBS RPMI-1640 medium, and A549 was adjusted to 8.9E3 cells/ml using 2% FBS F-12K medium; 800 (45 μl) H358 or 400 (45 μl) A549 cells were seeded in a 384-well sphere plate respectively, cultured overnight to establish a 3D cell model. DMSO was used to prepare 1000× compound 3.16-fold gradient concentration stock solution, and 2% FBS medium was used to dilute 100-fold to 10× compound stock solution. On the second day after cell seeding, 5 μl 10× compound stock solution was added to each cell culture well, the final concentration was 1×, and DMSO content was 0.1%. DMSO was used as the experimental control (control) and 2% FBS medium as the blank control (blank). After the compound and cells were added and cultured for 5 days, 25 μl CellTiter-Glo working solution was added to each well, mixed at 400 rpm and incubated for 30 minutes. After standing 30 minutes at room temperature, 40 μl of the mixture was transfered to a 384-well plate with a non-transparent white bottom, the luminescence chemiluminescence value was read, and the cells proliferation inhibition rate IR (%)=(RLU control-RLU compound)/(RLU control-RLU blank)×100% was calculated, Prism 6 four-parameter method was used to fit the compound's gradient dilution concentration and the corresponding cell proliferation inhibition rate, and the IC50 value was calculated.

[2] = tested on: Kras G12C mutant NCI-H358 cells; test: Cell proliferation inhibition experiment, 3D cell model, CellTiter-Glo (H358); format: cell-based, human; details: NCI-H358, 2% FBS RPMI-1640, 384-well sphere plate, cultured 5 days with compound
Procedure: as §1

IC50 ([1]; Homo sapiens, A549, 120 h) | IC50 ([2]; Homo sapiens, NCI-H358, 120 h) | SMILES | IC50 [1] | IC50 [2]
> 5000 nM | 39 nM | C=CC(=O)N1CCN(c2nc(N3CC(N(C)C)C3)nc3c(OC4CC4)c(-c4c(C)ccc5[nH]ncc45)c(Cl)cc23)CC1 [Compound Z33, 1-(4-(6-chloro-8-cyclopropoxy-2-(3-(dimethylamino)azetidine-1-yl)-7-(5-methyl-1H-indazol-4-yl)quinazolin-4-yl)piperazin-1-yl)prop-2-en-1-one] |  | 
> 30000 nM | 38 nM | C=CC(=O)N1CCN(c2nc(N3CCC(N(C)C)CC3)nc3c(OC4CC4)c(-c4c(C)ccc5[nH]ncc45)c(Cl)cc23)CC1 [Compound Z34, 1-(4-(6-chloro-8-cyclopropoxy-2-(4-(dimethylamino)piperidin-1-yl)-7-(5-methyl-1H-indazol-4-yl)quinazolin-4-yl)piperazin-1-yl)prop-2-en-1-one] |  | 
> 5000 nM | 43 nM | C=CC(=O)N1CCN(c2nc(N3CCC(N(C)C)C3)nc3c(OC4CC4)c(-c4c(C)ccc5[nH]ncc45)c(Cl)cc23)CC1 (centres unmarked) [Compound Z35, 1-(4-(6-chloro-8-cyclopropoxy-2-(3-(dimethylamino)pyrrolidin-1-yl)-7-(5-methyl-1H-indazol-4-yl)quinazolin-4-yl)piperazin-1-yl)prop-2-en-1-one] |  | 
> 30000 nM | 16 nM | C=CC(=O)N1CCN(c2nc(OCCN(C)C)nc3c(OC4CC4)c(-c4c(C)ccc5[nH]ncc45)c(Cl)cc23)CC1 [Compound Z36] |  | 
> 5000 nM | 51 nM | C=CC(=O)N1CCN(c2nc(N3CCN(C)CC3)nc3c(OC4CC4)c(-c4c(C)ccc5[nH]ncc45)c(Cl)cc23)CC1 [Compound Z37] |  | 
> 30000 nM | 19 nM | C=CC(=O)N1CCN(c2nc(OC[C@@H]3C[C@@H](F)CN3C)nc3c(OC4CC4)c(-c4c(C)ccc5[nH]ncc45)c(Cl)cc23)CC1 [Compound Z38, 1-(4-(6-chloro-8-cyclopropoxy-2-((((2S, 4R)-4-fluoro-1-methylpyrrolidin-2-yl)methoxy)-7]-(5-methyl-1H-indazol-4-yl)quinazolin-4-yl)piperazin-1-yl)prop-2-en-1-one] |  | 
> 5000 nM | 21 nM | C=CC(=O)N1CCN(c2nc(O[C@@H]3CCN(C)C3)nc3c(OC4CC4)c(-c4c(C)ccc5[nH]ncc45)c(Cl)cc23)CC1 [Compound Z39] |  | 
 |  | C=CC(=O)N1CCN(c2nc(O[C@H]3CCN(C)C3)nc3c(OC4CC4)c(-c4c(C)ccc5[nH]ncc45)c(Cl)cc23)CC1 [Compound Z40] | > 1000 nM | 25 nM
> 30000 nM | 18 nM | C=CC(=O)N1CCN(c2nc(OC[C@@H]3C[C@H](F)CN3C)nc3c(OC4CC4)c(-c4c(C)ccc5[nH]ncc45)c(Cl)cc23)CC1 [Compound Z45, 1-(4-(6-chloro-8-cyclopropoxy-2-((((2S, 4S)-4-fluoro-1-methylpyrrolidin-2-yl)methoxy)-7]-(5-methyl-1H-indazol-4-yl)quinazolin-4-yl)piperazin-1-yl)prop-2-en-1-one] |  | 
 |  | C=CC(=O)N1CCN(c2nc(OC[C@@H]3CCCN3C)nc3c(OC4CC4)c(-c4c(C)ccc5[nH]ncc45)c(Cl)cc23)C[C@@H]1CC#N [Compound Z46] | > 30000 nM | 2 nM
> 5000 nM | 38 nM | C=CC(=O)N1CCN(c2nc(OC[C@@H]3CCCN3C)nc3c(OC4CC4)c(-c4c(C)ccc5[nH]nc(F)c45)c(Cl)cc23)CC1 [Compound Z47, 1-(4-(6-chloro-8-cyclopropoxy-7-(3-fluoro-5-methyl-1H-indazol-4-yl)-2-((((S)-1-methylpyrrolidin-2-yl))methoxy)quinazolin-4-yl)piperazin-1-yl)prop-2-en-1-one] |  | 
> 30000 nM | 83 nM | C=CC(=O)N1CCN(c2nc(OC[C@@H]3CCCN3C)nc3c(OC4CC4)c(-c4c(C)ccc5[nH]ncc45)c(OC)cc23)CC1 [Compound Z49, 1-(4-(8-cyclopropoxy-6-methoxy-7-(5-methyl-1H-indazol-4-yl)-2-(((S)-1-methylpyrrolidin-2-yl)methoxy)quinazolin-4-yl)piperazin-1-yl)prop-2-en-1-one] |  | 

SMILES | IC50 ([1]; Homo sapiens, A549, 120 h) | IC50 ([2]; Homo sapiens, NCI-H358, 120 h) | IC50 [1] | IC50 [2]
C=CC(=O)N1[C@@H]2CC[C@H]1CN(c1nc(OC[C@@H]3CCCN3C)nc3c(OC4CC4)c(-c4c(C)ccc5[nH]ncc45)c(Cl)cc13)C2 [Compound Z42, 1-((1R, 5S)-3-(6-chloro-8-cyclopropoxy-7-(5-methyl-1H-indazol-4-yl)-2-(((S)-1-methylpyrrolidin-2-yl)methoxy)quinazolin-4-yl)-3,8-diazabicyclo[3.2.1]octane-8-yl)prop-2-en-1-one] | > 30000 nM | 331 nM |  | 
